Key:
Type in all cases: biochemical
[1] = biological target: T1, hCA I (Homo sapiens, UniProt P00915); assay: Esterase activity inhibition of hCA I (4-nitrophenylacetate, 348 nm)
Procedure: (§1) Erythrocytes were purified from human blood. The blood samples were centrifuged at 1500 rpm for 20 min, and plasma was removed. Later, red cells were washed with isotonic solution (0.9% NaCl), and the erythrocytes were hemolyzed with 1.5 volumes of ice-cold water. Cell membranes were removed by centrifugation at 4 °C, 20000 rpm for 30 min. The pH of hemolysate was adjusted to 8.7 with solid TRIS (tris(hydroxymethyl)aminomethane). […] After extensive washing with a solution of 25.0 mM TRIS-HCl/22.0 mM Na2SO4 (pH 8.7), the hCA I and hCA II isoenzymes were eluted with the solution of 1.0 M NaCl/25.0 mM Na2HPO4 (pH 6.3) and 0.1 M NaCH3COO/0.5 M NaClO4 (pH 5.6), respectively. For quantitative protein determination, the Bradford method was used with bovine serum albumin as standard. Also, the purity control of the isoenzymes was performed with SDS-PAGE after the purification.
(§2) The enzymatic reaction, in a total volume of 3.0 mL, contained 1.4 mL of 0.05 M TRIS–SO4 buffer (pH 7.4), 1.0 mL of 3.0 mM 4-nitrophenylacetate, 0.5 mL H2O, and 0.1 mL enzyme solution. A reference measurement was obtained by preparing the same cuvette without enzyme solution.
(§3) Regression analysis graphs were drawn by plotting the percent enzyme activity versus inhibitor concentration and IC50 values were calculated.
(§4) Enzyme activity was also measured in the presence of the same substrate concentrations but in the absence of any inhibitor to determine the Vmax (Supplementary Figure S3).

[2] = biological target: T2, hCA II (Homo sapiens, UniProt P00918); assay: Esterase activity inhibition of hCA II (4-nitrophenylacetate, 348 nm)
Procedure: as §1, §2, §3, §4

[3] = biological target: T1, hCA I; assay: CO2 hydratase activity inhibition of hCA I (pH-stat method)
Procedure: as §1
(§5) The enzyme unit (EU) is the enzyme amount that reduces the non-enzymatic reaction time by 50%. The activity of an enzyme unit was calculated by using the equation ((t0−tc)/tc), where t0 and tc are times for pH change of the non-enzymatic and enzymatic reactions, respectively.
as §3

[4] = biological target: T2, hCA II; assay: CO2 hydratase activity inhibition of hCA II (pH-stat method)
Procedure: as §1, §5, §3

[5] = 4-nitrophenylacetate, 25 °C, TRIS-SO4 pH 7.4, mean ± standard error, three assays
[6] = determined by esterase activity measurements, Lineweaver-Burk plot, mean ± standard error, three assays
[7] = CO2 hydratase activity, 0 °C, veronal buffer pH 8.15, mean ± standard error, three assays

T1 sequence (P00915 whole entry): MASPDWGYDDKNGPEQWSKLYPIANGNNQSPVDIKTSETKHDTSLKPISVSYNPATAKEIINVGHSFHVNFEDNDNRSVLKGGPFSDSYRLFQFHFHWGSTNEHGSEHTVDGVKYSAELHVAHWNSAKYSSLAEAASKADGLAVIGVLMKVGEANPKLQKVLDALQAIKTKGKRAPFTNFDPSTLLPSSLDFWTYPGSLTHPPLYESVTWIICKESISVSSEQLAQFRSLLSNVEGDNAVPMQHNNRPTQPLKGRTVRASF

| Compound | IC50 [1, 5] [µM] | Ki [1, 6] [µM] | IC50 [2, 5] [µM] | Ki [2, 6] [µM] | IC50 [3, 7] [µM] | IC50 [4, 7] [µM] | hCA II inhibited stronger than hCA I (esterase activity) ([2]; esterase activity, hCA II versus hCA I) [fold] | Inhibition of esterase activity of hCA I (in words) [1] | Esterase IC50 hCA I [1, 5] | Ki hCA I [1, 6] | Inhibition of esterase activity of hCA II (in words) [2] | Esterase IC50 hCA II [2, 5] | Ki hCA II [2, 6] | Inhibition of hydratase activity of hCA I (in words) [3] | Hydratase IC50 hCA I [3, 7] | Inhibition of hydratase activity of hCA II (in words) [4] | Hydratase IC50 hCA II [4, 7] |
| --- | --- | --- | --- | --- | --- | --- | --- | --- | --- | --- | --- | --- | --- | --- | --- | --- | --- |
| (SMHABT)[Fe(DPC)2].4H2O [Compound 2] | 0.409 ± 0.021 | 0.192 ± 0.019 | 0.189 ± 0.005 | 0.101 ± 0.005 | 2.533 ± 0.023 | 1.01 ± 0.013 | – | – | – | – | – | – | – | – | – | – | – |
| Nc1nc2ccc(S(N)(=O)=O)cc2s1 [SMABT, 2-amino-6-sulfamoylbenzothiazole] | 0.567 ± 0.008 | 0.306 ± 0.004 | 0.322 ± 0.006 | 0.162 ± 0.01 | 6.348 ± 0.012 | 3.876 ± 0.014 | – | – | – | – | – | – | – | – | – | – | – |
| Nc1nc2ccc(S(N)(=O)=O)cc2s1.O=C(O)c1cccc(C(=O)O)n1 [Compound 1, (SMHABT)^+(HDPC)^−] | 0.258 ± 0.017 | 0.149 ± 0.017 | 0.133 ± 0.015 | 0.085 ± 0.019 | 4.075 ± 0.018 | 1.998 ± 0.009 | – | – | – | – | – | – | – | – | – | – | – |
| (SMHABT)2[Co(DPC)2].5H2O [Compound 3] | 0.066 ± 0.004 | 0.028 ± 0.002 | 0.041 ± 0.003 | 0.013 ± 0.006 | 1.601 ± 0.008 | 0.703 ± 0.014 | 1.5 | – | – | – | – | – | – | – | – | – | – |
| NC(=S)Nc1ccc(S(N)(=O)=O)cc1 [TBS, 4-thioureidobenzenesulfonamide, reference compound] | 0.499 ± 0.01 | 0.268 ± 0.007 | 0.234 ± 0.006 | 0.114 ± 0.003 | 7.846 ± 0.005 | 4.334 ± 0.021 | – | – | – | – | – | – | – | – | – | – | – |
| O=C(O)c1cccc(C(=O)O)n1 [Compound H2DPC, 2,6-pyridinedicarboxylic acid, reference compound] | – | – | – | – | – | – | – | have not inhibited | No inhibition | No inhibition | have not inhibited | No inhibition | No inhibition | have not inhibited | No inhibition | have not inhibited | No inhibition |
| (SMHABT)2[Ni(DPC)2].5H2O [Compound 4] | 0.136 ± 0.003 | 0.043 ± 0.012 | 0.054 ± 0.001 | 0.021 ± 0.004 | 0.397 ± 0.011 | 0.212 ± 0.006 | – | – | – | – | – | – | – | – | – | – | – |

Reference: paper PMC6009966, “A novel proton transfer salt of 2-amino-6-sulfamoylbenzothiazole and its metal complexes: the evaluation of their inhibition effects on human cytosolic carbonic anhydrases” (Journal of Enzyme Inhibition and Medicinal Chemistry, 2017)
